Molecule CCN(CC)C(=O)c1ccccc1N has a melting point of 71 to 73 °C.
With C=CCn1cnc(-c2ccccc2)c1N the melting point was 72 to 74 °C.
Molecule Nc1nc2cnc(Cl)nc2s1 has a melting point of 209 to 211 °C.
With CC1CN(C(=O)c2ccccc2N)CC(C)O1 (stereo not drawn) the melting point was 119 to 121 °C.
Work on Nc1cc(C2CCOCC2)no1 yielded a melting point of 159 to 161 °C.
For O=Cc1cccc(OCC(=O)O)c1, the melting point was 111 to 113 °C.
In the case of COc1ccc(C#N)cc1C, the melting point was 49 to 51 °C.
CC(C)(C(=O)O)c1ccc2ccccc2c1 showed a melting point of 146 to 148 °C.
In the case of COC(=O)c1c(N)sc(C)c1C, the melting point was 124 to 126 °C.
In the case of Nc1ccc(-c2ncco2)cc1, the melting point was 104 to 106 °C.
Work on Cc1n[nH]c(C2CCCCC2)n1 yielded a melting point of 127 to 129 °C.
For Nc1ccc(-c2cn3ccccc3n2)cc1, the melting point was 118 to 120 °C.
In the case of Nc1ccc2c(c1)nc1n2CCCCC1, the melting point was 180 to 182 °C.
NN=C(Nc1ccccc1)c1cc(F)cc(F)c1 gave a melting point of 99 to 101 °C.
Nc1ccc2[nH]c(-c3cc(F)ccc3F)nc2c1 gave a melting point of 188 to 190 °C.
Molecule O=C1C=CC(=O)N1CCc1ccccc1 has a melting point of 109 to 111 °C.
For CC1(C)C(=O)Nc2ccc(Br)cc21, the melting point was 156 to 158 °C.
O=C(O)C(c1ccccc1)N1CCc2ccccc21 (stereo not drawn) gave a melting point of 181 to 183 °C.
Work on Nc1cccc(-c2nnnn2C2CC2)c1 yielded a melting point of 137 to 139 °C.
Molecule NC(=S)NCc1cccc(C(F)(F)F)c1 has a melting point of 97 to 99 °C.
CC(C)(C)OC(=O)N1CCC(c2ccc(C(F)(F)F)cc2)C(N)C1 (stereo not drawn) gave a melting point of 77 to 79 °C.
For O=C(O)CC1(C(=O)O)CCN(C(=O)OCc2ccccc2)C1 (stereo not drawn), the melting point was 169 to 171 °C.
In the case of O=C1NC(=O)c2cnccc21, the melting point was 233 to 235 °C.
In the case of COc1ccc(NS(=O)(=O)c2cc(N)ccc2N2CCCC2)cc1, the melting point was 178 to 182 °C.
Molecule CC1(c2ccncc2)NC(=O)NC1=O (stereo not drawn) has a melting point of 231 to 233 °C.
Nc1ccc(CN2CCN(c3ccccn3)CC2)cc1 gave a melting point of 101 to 103 °C.
COc1ccc(NC(=O)Oc2ccccc2)c([N+](=O)[O-])c1 gave a melting point of 43 to 48 °C.
With N#CCc1c[nH]c2ccc(Br)cc12 the melting point was 103 to 105 °C.
COc1cc(F)c(C(=O)O)cc1OC showed a melting point of 192 to 194 °C.
For CCCOc1ccc(CNC(=O)CCl)cc1, the melting point was 109 to 111 °C.
Work on Cc1nc(C#N)c(NN)o1 yielded a melting point of 157 to 159 °C.
For Cc1ccc(C(=O)Nc2ccc(O)cc2)cc1, the melting point was 208 to 210 °C.
In the case of O=c1c(Cl)c(Cl)cnn1-c1cccc(C(F)(F)F)c1, the melting point was 92 to 94 °C.
For O=C(O)C1CCN(c2cnccn2)CC1, the melting point was 149 to 151 °C.
CCOC(=O)c1sc(N(C)C)nc1C showed a melting point of 39 to 41 °C.
COc1ccc2[nH]cc(C3CCNCC3)c2c1 showed a melting point of 169 to 171 °C.
C=CCNC(=O)NC(=O)CCl gave a melting point of 113 to 115 °C.
CC(=O)c1cnc2nncn2c1C gave a melting point of 192 to 193 °C.
In the case of Cc1cc(Cl)nc(-c2ccccn2)n1, the melting point was 70 to 72 °C.
For CC1(C)SC[C@H](C(=O)O)NC1=O, the melting point was 205 to 207 °C.
For Cc1cccc(-n2ncc(C(=O)O)n2)c1, the melting point was 131 to 133 °C.
In the case of CC(CC(=O)c1cccc(F)c1)C(=O)O (stereo not drawn), the melting point was 96 to 98 °C.
Molecule CN(C)c1ncnc(Cl)c1C=O has a melting point of 141 to 143 °C.
With O=C1Nc2cc(F)c(Cl)cc2C1=O the melting point was 256 to 258 °C.
Work on Cc1ccc(S(N)(=O)=O)cc1C yielded a melting point of 117 to 119 °C.
CC(C)(C(=O)O)C(O)c1ccc(OCc2ccccc2)cc1 (stereo not drawn) gave a melting point of 167 to 169 °C.
Molecule OCc1cc2ccc(Br)cc2[nH]1 has a melting point of 115 to 117 °C.
COC(=O)c1ccc(-n2cc(C)cn2)c(N)c1 showed a melting point of 136 to 138 °C.
With O=C(O)c1cnn(-c2ccccn2)c1C(F)(F)F the melting point was 156 to 158 °C.
O=S(=O)(Cl)c1csc(-c2ccc(Br)cc2)n1 showed a melting point of 116 to 118 °C.
With O=C(O)c1cccc(C2CCCOC2)c1 (stereo not drawn) the melting point was 82 to 84 °C.
With O=C(O)c1ccc(-n2cccc2)c(F)c1 the melting point was 252 to 254 °C.
Molecule O=C(O)c1ccc(S(=O)(=O)NCC2CCCO2)cc1 (stereo not drawn) has a melting point of 169 to 171 °C.
Work on COc1ccc(-c2csc3ncnc(Cl)c23)cc1 yielded a melting point of 163 to 167 °C.
Molecule O=C1Nc2ccccc2S(=O)(=O)N1 has a melting point of 301 to 303 °C.
With COCCn1c(N)cc(=O)[nH]c1=O the melting point was 90 to 92 °C.
In the case of Nc1cnn(CC(=O)O)c1, the melting point was 206 to 208 °C.
Molecule COc1ccc2oc(C(=O)O)c(C)c2c1 has a melting point of 202 to 204 °C.
Work on CNc1nc(-c2ccccc2[N+](=O)[O-])cs1 yielded a melting point of 139 to 141 °C.
For O=C(O)CCc1ccc(S(=O)(=O)Cl)cc1, the melting point was 157 to 159 °C.
For N#Cc1ccccc1CS(=O)(=O)Cl, the melting point was 85 to 87 °C.
In the case of Cc1sc2nc(CCCC(=O)O)[nH]c(=O)c2c1C, the melting point was 243 to 245 °C.
In the case of O=C(O)CCCc1nnc(-c2ccccc2I)o1, the melting point was 69 to 71 °C.
Cc1ccc(C(=O)O)cc1S(=O)(=O)N1CCCCC1 showed a melting point of 179 to 181 °C.
In the case of CCOc1ccccc1-c1nnc(S)n1N, the melting point was 153 to 155 °C.
COc1ccc(C(=O)O)c(I)c1 gave a melting point of 182 to 184 °C.
With Cc1ccc2c(c1)NC(=O)C(C)O2 (stereo not drawn) the melting point was 146 to 148 °C.
CCn1c(C(C)=O)nc2ccccc21 showed a melting point of 76 to 78 °C.
O=S(=O)(Cl)c1ccc(-n2cccn2)c(F)c1 showed a melting point of 104 to 106 °C.
In the case of O=C(O)CSCc1ccccn1, the melting point was 136 to 138 °C.
Cc1ccc(S(=O)(=O)Nc2cccc(Cl)c2)cc1N gave a melting point of 110 to 112 °C.
With O=C(O)C1CC=CCC1C(=O)N1CCCC1 (stereo not drawn) the melting point was 116 to 118 °C.
O=S(=O)(Nc1ccccc1Br)N1CCOCC1 showed a melting point of 81 to 83 °C.
With COc1cc(F)c(F)cc1[N+](=O)[O-] the melting point was 54 to 56 °C.
With CCOC(=O)c1cnn(-c2ccc(C(=O)O)cc2)c1C the melting point was 201 to 203 °C.
COC(=O)c1c(C(=O)CCl)c(C)n(C2CC2)c1C showed a melting point of 74 to 78 °C.
In the case of NCC(CCC(=O)O)C(F)(F)F (stereo not drawn), the melting point was 155 to 157 °C.
For N#Cc1ccccc1OCc1ccccc1, the melting point was 70 to 72 °C.
For O=C(O)c1c(C(F)(F)F)nn(-c2ccccc2)c1C(F)(F)F, the melting point was 156 to 158 °C.
With NS(=O)(=O)c1ccc(NC(=O)CCl)cc1 the melting point was 156 to 158 °C.
With CC(C)(O)c1cn(-c2ccccc2)nn1 the melting point was 89 to 91 °C.
CCc1ccccc1C(=O)O showed a melting point of 62 to 66 °C.
CN1CCC(=O)Nc2cc(C(=O)O)ccc21 showed a melting point of 249 to 251 °C.
Work on O=C(O)c1ccccc1COc1ccccc1C(=O)O yielded a melting point of 199 to 201 °C.
With O=C(CCl)N1CCCC1=O the melting point was 33 to 35 °C.
With Cc1c(N)cccc1S(=O)(=O)NC1CC1 the melting point was 111 to 113 °C.
Sc1nnc(NCC2CCCO2)s1 (stereo not drawn) showed a melting point of 123 to 125 °C.
N#Cc1c(C(F)(F)F)cc(=O)[nH]c1SCC(=O)O showed a melting point of 200 to 204 °C.
Cc1cc(C(=O)O)ccc1N1C(=O)C=CC1=O gave a melting point of 203 to 205 °C.
For Cc1sc(N)nc1-c1ccc(F)c(F)c1, the melting point was 135 to 137 °C.
In the case of COc1cccc2c1OCC(C(=O)O)C2 (stereo not drawn), the melting point was 174 to 176 °C.
Cc1nc(COc2ccc(/C=C/C(=O)O)cc2)cs1 gave a melting point of 185 to 187 °C.
Work on ClCc1nnnn1-c1ccccc1Br yielded a melting point of 45 to 47 °C.
In the case of CNCc1nnc[nH]1, the melting point was 91 to 93 °C.
O=C(O)CC(=O)Nc1nccs1 showed a melting point of 181 to 183 °C.
CC(C)Oc1ccc(-c2nc(C(=O)O)cs2)cc1 showed a melting point of 203 to 205 °C.
With CS(=O)(=O)c1ccc(CNC(=O)CCl)cc1 the melting point was 142 to 144 °C.
Work on Nc1nc2ccccc2o1 yielded a melting point of 124 to 126 °C.
N#Cc1ccccc1Oc1cnccn1 gave a melting point of 73 to 75 °C.
Work on CCOC(=O)Cc1nc2ccccc2[nH]1 yielded a melting point of 179 to 181 °C.
With Cn1ccnc1C(=O)c1ccc(N)cc1 the melting point was 70 to 72 °C.
In the case of COc1ccc(Nc2ccccc2)cc1, the melting point was 104 to 106 °C.
With Nn1cnc2ccccc21 the melting point was 147 to 149 °C.
With COc1ccc(NC(=O)CCCl)cc1 the melting point was 120 to 122 °C.
In the case of Cc1ccc(C)c(C(=O)CCl)c1, the melting point was 28 to 30 °C.
For CCc1ccc(C(=O)c2ccc(N)cc2)o1, the melting point was 124 to 126 °C.
CCNC(=O)c1ccccc1N gave a melting point of 93 to 95 °C.
Work on Cc1ccc(Cc2cnc(N)s2)cc1 yielded a melting point of 142 to 144 °C.
Cc1nc(-c2ccc(O)cc2)cs1 gave a melting point of 210 to 212 °C.
For Cc1ccc(-c2nn(Cc3ccccc3)cc2C(=O)O)cc1C, the melting point was 155 to 157 °C.
In the case of COc1cc(NS(=O)(=O)c2ccc(N)cc2OC)cc(OC)c1, the melting point was 177 to 179 °C.
NC(=O)CNS(=O)(=O)c1c[nH]c(C(=O)O)c1 showed a melting point of 239 to 241 °C.
Work on CC(=O)CC(=O)CCN1C(=O)c2ccccc2C1=O yielded a melting point of 104 to 106 °C.
For O=C(COc1cccc2ccccc12)N1CCNCC1, the melting point was 141 to 143 °C.
With CC(c1ccccc1)C(O)C(=O)O (stereo not drawn) the melting point was 115 to 117 °C.
Work on CCC(C)n1c(SCC(=O)O)nnc1-c1ccccc1 (stereo not drawn) yielded a melting point of 155 to 157 °C.
With O=S1(=O)CCC(I)CC1 the melting point was 124 to 126 °C.
Work on CCc1c(C)nc2ccccc2c1N yielded a melting point of 148 to 150 °C.
Work on CN1CCN(C(=O)C2CCc3ccccc3N2)CC1 (stereo not drawn) yielded a melting point of 113 to 115 °C.
Work on Cc1[nH]nc2ncc(C(=O)O)cc12 yielded a melting point of 337 to 339 °C.
For CSCCC(C(=O)O)N1C(=O)C2CCCCC2C1=O (stereo not drawn), the melting point was 268 to 270 °C.
CC1(CO)CCN(Cc2ccccc2)CC1 showed a melting point of 59 to 61 °C.
In the case of O=C(Cc1ccc(O)cc1)NC1CCNCC1, the melting point was 211 to 213 °C.
In the case of CC(C)CN(CC(C)C)C(=O)CC(=O)N(CC(C)C)CC(C)C, the melting point was 51 to 53 °C.
Cc1ccc(Cn2nc(C)c(C(=O)O)c2C)cc1 showed a melting point of 134 to 136 °C.
NC(=S)NCc1ccc(F)cc1 showed a melting point of 119 to 121 °C.
Molecule O=C(O)c1ccccc1N1CCCCC1 has a melting point of 59 to 61 °C.
Molecule Nc1ncccc1OCc1cccnc1 has a melting point of 104 to 106 °C.
Cc1ccc(-c2nc(N)sc2CC(=O)O)cc1 gave a melting point of 218 to 222 °C.
Molecule O=C(O)Cc1csc(NC(=O)NC2CC2)n1 has a melting point of 188 to 190 °C.
CCOC(=O)c1cc(CC)sc1NC(=O)C(C)Cl (stereo not drawn) gave a melting point of 57 to 59 °C.
Work on O=C(O)c1nn(-c2cc(C(F)(F)F)ccc2Cl)c2c1CCC2 yielded a melting point of 229 to 231 °C.
Cc1cc(Br)cc(C)c1C(=O)O gave a melting point of 184 to 186 °C.
In the case of Nc1ccccc1CN1CCNC1=O, the melting point was 142 to 144 °C.
With CCOc1ccc(C(N)=O)cn1 the melting point was 179 to 181 °C.
CCc1cccc(CC)c1-n1ccnc1 gave a melting point of 74 to 76 °C.
For O=C(Nc1cc(Cl)ccc1C(=O)O)c1ccc(F)cc1, the melting point was 250 to 252 °C.
With O=C(O)c1cc(Cl)nc(N2CCCC2)c1 the melting point was 215 to 217 °C.
For O=C(O)c1cnn(-c2ccccc2)c1C1CC1, the melting point was 173 to 175 °C.
For CNC(=O)COc1ccc(C=O)cc1OC, the melting point was 105 to 107 °C.
In the case of CC(C)N1C(=O)NC2(CCNC2)C1=O (stereo not drawn), the melting point was 98 to 100 °C.
Work on CC1(c2ccc(Br)cc2)CC(=O)NC1=O (stereo not drawn) yielded a melting point of 144 to 146 °C.
CSCC(=O)Nc1ccc(O)cc1 gave a melting point of 107 to 109 °C.
